Test results: patent publication US20240360178A1, “MACROCYCLIC IMMUNOMODULATORS” (Bristol-Myers Squibb Company, priority 2021, published 2024)
Starred links: 1 amine or outer side, 2 acyl side, 3 side chain; linkers in the order of their positions; H or OH if unused. Positions of bridges follow the written chain, without caps; N, C: chain ends. Non-standard residues stand in square brackets, D forms with d. Residues, ends and D or L forms follow the SMILES beside them. Bip = N[C@@H](Cc1ccc(-c2ccccc2)cc1)C(=O)O; Phe(3-CN) = N#Cc1cccc(C[C@H](N)C(=O)O)c1; Val(3-OH) = CC(C)(O)[C@H](N)C(=O)O; NMeF = CN[C@@H](Cc1ccccc1)C(=O)O; X2 = O=C([C@H]1COCCN1[*:1])[*:2]; 3Pal = N[C@@H](Cc1cccnc1)C(=O)O; 4Pal = N[C@@H](Cc1ccncc1)C(=O)O; Aad = N[C@@H](CCCC(=O)O)C(=O)O; Cha = N[C@@H](CC1CCCCC1)C(=O)O; Cit = NC(=O)NCCC[C@H](N)C(=O)O; NMeA = CN[C@@H](C)C(=O)O; Orn = NCCC[C@H](N)C(=O)O; Dab = NCC[C@H](N)C(=O)O; Nva = CCC[C@H](N)C(=O)O; Dap = NC[C@H](N)C(=O)O; Sar = CNCC(=O)O

The molecules below were run against T1, human PD-1 (Jurkat-PD-1 cells) / PE-labeled human PD-L1-Ig (Homo sapiens, UniProt Q15116) (assay: Jurkat-PD-1 Cell Binding High-Content Screening Assay (CBA); Jurkat hPD1-PDL1 assay). Conditions: Jurkat cell line over-expressing human PD-1; PE-labeled PD-L1-Ig 20 nM final; compound incubated 2 hours at 37° C.; read-out: Jurkat HPD1-PDL1 IC50.
T1 construct: expressed in transfected cells; host or cells: Jurkat cell line over-expressing human PD-1
Outline: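 Jurkat cells over-expressing human PD-1, seeded in DMEM with 10% fetal calf serum, were preincubated with compound for 2 hours at 37° C. PE-labeled human PD-L1-Ig was then added at 20 nM final, and cell-bound fluorescence was read by high-content imaging.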

T1 sequence (Q15116 25-288): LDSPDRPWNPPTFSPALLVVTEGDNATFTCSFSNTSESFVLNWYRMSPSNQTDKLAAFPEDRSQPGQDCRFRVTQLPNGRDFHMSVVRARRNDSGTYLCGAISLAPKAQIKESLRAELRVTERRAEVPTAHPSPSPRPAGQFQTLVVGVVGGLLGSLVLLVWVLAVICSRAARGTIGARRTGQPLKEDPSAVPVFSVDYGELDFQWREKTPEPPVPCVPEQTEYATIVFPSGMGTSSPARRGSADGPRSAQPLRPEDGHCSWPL

Compound	IC50
CC(C)C[C@@H]1NC(=O)[C@H](CCN)NC(=O)[C@H](Cc2ccccc2)N(C)C(=O)[C@H](C)N(C)C(=O)[C@H](CCCNC(=N)N)NC(=O)[C@H](Cc2ccc(-c3ccccc3)cc2)NC(=O)[C@H](C(C)C)NC(=O)[C@H](Cc2c[nH]c3ccccc23)NC(=O)[C@H](CC(=O)O)NC(=O)[C@H](Cc2ccc(O)cc2)NC(=O)[C@H](CC(N)=O)NC(=O)CSC[C@@H](C(=O)N[C@@H](C)C(N)=O)NC(=O)[C@H](CO)NC(=O)[C@H](C(C)C)NC1=O [Example 1303] ({CH2CO}-NYDWV[Bip]R[NMeA][NMeF][Dab]LVSCA-NH2; thioether N-14)	70 nM
CC(C)C[C@@H]1NC(=O)[C@H](Cc2c[nH]c3ccccc23)NC(=O)[C@H](CC(=O)O)NC(=O)[C@H](Cc2ccc(O)cc2)NC(=O)[C@H](CC(N)=O)NC(=O)CSC[C@@H](C(=O)N[C@@H](C)C(N)=O)NC(=O)[C@H]([C@@H](C)O)NC(=O)[C@H](C(C)C)NC(=O)[C@H](CC(C)C)NC(=O)[C@H](CCN)NC(=O)[C@H]2CCCN2C(=O)[C@H](CCCN)NC(=O)[C@H](C(C)C)NC(=O)[C@H](Cc2ccc(-c3ccccc3)cc2)NC1=O [Example 1402] ({CH2CO}-NYDWL[Bip]V[Orn][dP][Dab]LVTCA-NH2; thioether N-14)	260 nM
CC(C)C[C@@H]1NC(=O)[C@H](Cc2c[nH]c3ccccc23)NC(=O)[C@H](CC(=O)O)NC(=O)[C@H](Cc2cccc(C#N)c2)NC(=O)[C@H](Cc2ccncc2)NC(=O)CSC[C@@H](C(=O)N[C@@H](CCN)C(N)=O)NC(=O)[C@H](CO)NC(=O)[C@H](C(C)(C)O)NC(=O)[C@H](CC2CCCCC2)NC(=O)[C@H](CCN)NC(=O)[C@H]2CCCN2C(=O)[C@H](C)N(C)C(=O)[C@H](C(C)C)NC(=O)[C@H](Cc2ccc(-c3ccccc3)cc2)NC1=O [Example 1183] ({CH2CO}-[4Pal][Phe(3-CN)]DWL[Bip]V[NMeA][dP][Dab][Cha][Val(3-OH)]SC[Dab]-NH2; thioether N-14)	40 nM
CC(C)C[C@@H]1NC(=O)[C@H](Cc2c[nH]c3ccccc23)NC(=O)[C@H](CC(=O)O)NC(=O)[C@H](Cc2ccc(O)cc2)NC(=O)[C@H](Cc2ccccc2)NC(=O)CSC[C@@H](C(=O)N[C@@H](C)C(N)=O)NC(=O)[C@H](CO)NC(=O)[C@H](C(C)C)NC(=O)[C@H](CC(C)C)NC(=O)[C@H](CC(N)=O)NC(=O)[C@H]2COCCN2C(=O)[C@H](C)N(C)C(=O)[C@H](C(C)C)NC(=O)[C@H](Cc2ccc(-c3ccccc3)cc2)NC1=O [Example 1044] ({CH2CO}-FYDWL[Bip]V[NMeA][X2]NLVSCA-NH2; thioether N-14)	80 nM
CC(C)C[C@@H]1NC(=O)[C@H](Cc2c[nH]c3ccccc23)NC(=O)[C@H](CC(=O)O)NC(=O)[C@H](Cc2ccc(O)cc2)NC(=O)[C@H](Cc2ccccc2)NC(=O)CSC[C@@H](C(=O)N[C@@H](CO)C(N)=O)NC(=O)[C@H](CO)NC(=O)[C@H](C(C)C)NC(=O)[C@H](CC(C)C)NC(=O)[C@H](CC(N)=O)NC(=O)CN(C)C(=O)[C@H](C)N(C)C(=O)[C@H](C(C)C)NC(=O)[C@H](Cc2ccc(-c3ccccc3)cc2)NC1=O [Example 1173] ({CH2CO}-FYDWL[Bip]V[NMeA][Sar]NLVSCS-NH2; thioether N-14)	950 nM
CC(C)C[C@@H]1NC(=O)[C@H](Cc2c[nH]c3ccccc23)NC(=O)[C@H](CC(=O)O)NC(=O)[C@H](Cc2ccc(O)cc2)NC(=O)[C@H](Cc2ccccc2)NC(=O)CSC[C@@H](C(=O)N[C@@H](C)C(N)=O)NC(=O)[C@H](CO)NC(=O)[C@H](C(C)C)NC(=O)[C@H](CC(C)C)NC(=O)[C@H](CC(N)=O)NC(=O)CN(C)C(=O)[C@H](C)N(C)C(=O)[C@H](CCCC(=O)O)NC(=O)[C@H](Cc2ccc(-c3ccccc3)cc2)NC1=O [Example 1092] ({CH2CO}-FYDWL[Bip][Aad][NMeA][Sar]NLVSCA-NH2; thioether N-14)	260 nM
CC(C)C[C@@H]1NC(=O)[C@H](Cc2c[nH]c3ccccc23)NC(=O)[C@H](CC(=O)O)NC(=O)[C@H](Cc2ccc(O)cc2)NC(=O)[C@H](Cc2ccccc2)NC(=O)CSC[C@@H](C(=O)NCC(N)=O)NC(=O)[C@H](CO)NC(=O)[C@H](C(C)C)NC(=O)[C@H](CC(C)C)NC(=O)[C@H](CCN)NC(=O)CN(C)C(=O)[C@H](C)N(C)C(=O)[C@H](C(C)C)NC(=O)[C@H](Cc2ccc(-c3ccccc3)cc2)NC1=O [Example 1069] ({CH2CO}-FYDWL[Bip]V[NMeA][Sar][Dab]LVSCG-NH2; thioether N-14)	160 nM
CC(C)C[C@@H]1NC(=O)[C@H](Cc2c[nH]c3ccccc23)NC(=O)[C@H](CC(=O)O)NC(=O)[C@H](Cc2ccc(O)cc2)NC(=O)[C@H](Cc2ccccc2)NC(=O)CSC[C@@H](C(=O)N[C@@H](C)C(N)=O)NC(=O)[C@H](CO)NC(=O)[C@H](C(C)C)NC(=O)[C@H](CC(C)C)NC(=O)[C@H](CC(N)=O)NC(=O)[C@H]2CCCN2C(=O)[C@H](C)N(C)C(=O)[C@H](CCC(=O)O)NC(=O)[C@H](Cc2ccc(-c3ccccc3)cc2)NC1=O [Example 1039] ({CH2CO}-FYDWL[Bip]E[NMeA][dP]NLVSCA-NH2; thioether N-14)	70 nM
CC(C)C[C@@H]1NC(=O)[C@H](Cc2c[nH]c3ccccc23)NC(=O)[C@H](CC(=O)O)NC(=O)[C@H](Cc2ccc(O)cc2)NC(=O)[C@H](CN)NC(=O)CSC[C@@H](C(=O)N[C@@H](C)C(N)=O)NC(=O)[C@H](CO)NC(=O)[C@H](C(C)C)NC(=O)[C@H](CC(C)C)NC(=O)[C@H](CC(N)=O)NC(=O)[C@H]2CCCN2C(=O)[C@H](C)N(C)C(=O)[C@H](C(C)C)NC(=O)[C@H](Cc2ccc(-c3ccccc3)cc2)NC1=O [Example 1394] ({CH2CO}-[Dap]YDWL[Bip]V[NMeA][dP]NLVSCA-NH2; thioether N-14)	90 nM
CC(C)C[C@@H]1NC(=O)[C@H](CCCNC(=N)N)NC(=O)[C@H](Cc2ccccc2)N(C)C(=O)[C@H](C)N(C)C(=O)[C@H](CCC(=O)O)NC(=O)[C@H](Cc2ccc(-c3ccccc3)cc2)NC(=O)[C@H](C(C)C)NC(=O)[C@H](Cc2c[nH]c3ccccc23)NC(=O)[C@H](CC(=O)O)NC(=O)[C@H](Cc2ccc(O)cc2)NC(=O)[C@H](Cc2ccccc2)NC(=O)CSC[C@@H](C(=O)NCC(N)=O)NC(=O)[C@H](CO)NC(=O)[C@H](C(C)C)NC1=O [Example 1214] ({CH2CO}-FYDWV[Bip]E[NMeA][NMeF]RLVSCG-NH2; thioether N-14)	60 nM

Next, values leading:

IC50	Compound
260 nM	CCC[C@H](NC(=O)[C@@H]1CSCC(=O)N[C@@H](Cc2ccccc2)C(=O)N[C@@H](Cc2ccc(O)cc2)C(=O)N[C@@H](CC(=O)O)C(=O)N[C@@H](Cc2c[nH]c3ccccc23)C(=O)N[C@@H](C(C)C)C(=O)N[C@@H](Cc2ccc(-c3ccccc3)cc2)C(=O)N[C@@H](CCCNC(=N)N)C(=O)N(C)[C@@H](C)C(=O)N(C)[C@@H](Cc2ccccc2)C(=O)N[C@@H](CCCNC(=N)N)C(=O)N[C@@H](CC(C)C)C(=O)N[C@@H](C(C)C)C(=O)N[C@@H](CO)C(=O)N1)C(N)=O [Example 1329] ({CH2CO}-FYDWV[Bip]R[NMeA][NMeF]RLVSC[Nva]-NH2; thioether N-14)
220 nM	CC(C)C[C@@H]1NC(=O)[C@H](CCCNC(=N)N)NC(=O)[C@H](Cc2ccccc2)N(C)C(=O)[C@H](C)N(C)C(=O)[C@H](CCCNC(=N)N)NC(=O)[C@H](Cc2ccc(-c3ccccc3)cc2)NC(=O)[C@H](C(C)C)NC(=O)[C@H](Cc2c[nH]c3ccccc23)NC(=O)[C@H](CC(=O)O)NC(=O)[C@H](Cc2ccc(O)cc2)NC(=O)[C@H](Cc2cccnc2)NC(=O)CSC[C@@H](C(=O)N[C@@H](C)C(N)=O)NC(=O)[C@H]([C@@H](C)O)NC(=O)[C@H](C(C)C)NC1=O [Example 1348] ({CH2CO}-[3Pal]YDWV[Bip]R[NMeA][NMeF]RLVTCA-NH2; thioether N-14)
40 nM	CC(C)C[C@@H]1NC(=O)[C@H](CCCNC(=N)N)NC(=O)[C@H](Cc2ccccc2)N(C)C(=O)[C@H](C)N(C)C(=O)[C@H](CCCNC(N)=O)NC(=O)[C@H](Cc2ccc(-c3ccccc3)cc2)NC(=O)[C@H](C(C)C)NC(=O)[C@H](Cc2c[nH]c3ccccc23)NC(=O)[C@H](CC(=O)O)NC(=O)[C@H](Cc2ccc(O)cc2)NC(=O)[C@H](CC(N)=O)NC(=O)CSC[C@@H](C(=O)N[C@@H](C)C(N)=O)NC(=O)[C@H](CO)NC(=O)[C@H](C(C)C)NC1=O [Example 1377] ({CH2CO}-NYDWV[Bip][Cit][NMeA][NMeF]RLVSCA-NH2; thioether N-14)
160 nM	CC(C)C[C@@H]1NC(=O)[C@H](CCCNC(=N)N)NC(=O)[C@H](Cc2ccccc2)N(C)C(=O)[C@H](C)N(C)C(=O)[C@H](CCCNC(=N)N)NC(=O)[C@H](Cc2ccc(-c3ccccc3)cc2)NC(=O)[C@H](C(C)C)NC(=O)[C@H](Cc2c[nH]c3ccccc23)NC(=O)[C@H](CC(=O)O)NC(=O)[C@H](Cc2ccc(O)cc2)NC(=O)[C@H](CN)NC(=O)CSC[C@@H](C(=O)NCC(N)=O)NC(=O)[C@H](CO)NC(=O)[C@H](C(C)C)NC1=O [Example 1264] ({CH2CO}-[Dap]YDWV[Bip]R[NMeA][NMeF]RLVSCG-NH2; thioether N-14)
200 nM	CC(C)C[C@@H]1NC(=O)[C@H](CCN)NC(=O)[C@H](Cc2ccccc2)N(C)C(=O)[C@H](C)N(C)C(=O)[C@H](CCCN)NC(=O)[C@H](Cc2ccc(-c3ccccc3)cc2)NC(=O)[C@H](C(C)C)NC(=O)[C@H](Cc2c[nH]c3ccccc23)NC(=O)[C@H](CC(=O)O)NC(=O)[C@H](Cc2ccc(O)cc2)NC(=O)[C@H](Cc2ccccc2)NC(=O)CSC[C@@H](C(=O)N[C@@H](C)C(N)=O)NC(=O)[C@H]([C@@H](C)O)NC(=O)[C@H](C(C)C)NC1=O [Example 1341] ({CH2CO}-FYDWV[Bip][Orn][NMeA][NMeF][Dab]LVTCA-NH2; thioether N-14)
310 nM	CC(C)C[C@@H]1NC(=O)[C@H](CCCNC(=N)N)NC(=O)[C@H](Cc2ccccc2)N(C)C(=O)[C@H](C)N(C)C(=O)[C@H](CCCN)NC(=O)[C@H](Cc2ccc(-c3ccccc3)cc2)NC(=O)[C@H](C(C)C)NC(=O)[C@H](Cc2c[nH]c3ccccc23)NC(=O)[C@H](CC(=O)O)NC(=O)[C@H](Cc2ccc(O)cc2)NC(=O)[C@H](Cc2ccccc2)NC(=O)CSC[C@@H](C(=O)N[C@@H](C)C(N)=O)NC(=O)[C@H]([C@@H](C)O)NC(=O)[C@H](C(C)C)NC1=O [Example 1346] ({CH2CO}-FYDWV[Bip][Orn][NMeA][NMeF]RLVTCA-NH2; thioether N-14)
